Source: patent US4393210A, “1(2H)-Isoquinolone compounds and acid addition salts thereof” (Seiyaku Co., Ltd., priority 1980, dated 1983)
Counter-ions that a name gives are not always drawn.

Legend:
[1] = system: gastric secretion; test: Gastric secretion inhibitory activity, pylorus ligation; type: in vivo, Wister male rats; conditions: for pH Value (gastric juice) / Amount of Gastric Juice / Amount of Output Secretion: 4 hours, n=10; for pH Value (gastric juice): control 1.71 ± 0.11; for Amount of Gastric Juice: control 2.51 ± 0.32; for Amount of Gastric Juice / Amount of Output Secretion: **p < 0.01; for Amount of Output Secretion: control 184 ± 27.2; for effect on volume of gastric juice, acid secretion and pH value: Table 2, 100 mg/kg
Protocol: The pylorus of Wister male rats (body weight, 180 to 200 g) fasted for 24 hours was ligated under ether anesthesia and, immediately thereafter, the test compound was administered into the duodenum. Four hours after the administration, the stomach was extracted and gastric juice was collected and centrifuged at 3,000 r.p.m. for 15 minutes. The volume of gastric juice, the pH value and the amount of output secretion were then determined with respect to the supernatant.

[2] = system: ulcer generation caused by water-dipping restriction stress; test: Anti-ulcer activity, stress ulcer (water-dipping restriction stress); type: in vivo, Wister male rats; conditions: for Percent Inhibition (stress ulcer) / Ulcerous Index: oral; for Ulcerous Index: n=6, control 75.8
Protocol: The test compound was administered orally to Wister male rats (body weight, 200 to 230 g) and then the rats were tied up with a steel wire and dipped in water at 23° C. in a tank to the level of the xiphisternum of rats. After allowing the rats to stand for 7 hours in water, the rats were sacrificed and the stomach was extracted. 10 ml of a 1% formalin solution was injected into the stomach cavity and the stomach was dipped in a 1% formalin solution for 15 minutes to semi-harden the stomach. The stomach was excised along the greater curvature thereof and the ulcer generated in the portion of corpus ventriculi was observed.

[3] = system: histamine-induced contraction, guinea pig ileum; test: Anti-histamine activity, histamine-induced contraction of extracted ileum (Magnus tube); conditions: 31° C.; for shift of histamine-induced contraction curve: treatment 30 seconds before inducing contraction; for anti-histamine activity: guinea pig ileum
Protocol: (§1) The ileum of guinea pig (body weight, 300 to 400 g) was extracted and suspended in a Magnus tobe containing Tyrode's solution (saturated with oxygen) at 31° C. and the inhibitory activity of the test compounds on the contraction induced by administration of histamine or acetylchloline was determined. The treatment with the test compounds was conducted 30 seconds before inducing the contraction.

[4] = Acute toxicity; conditions: mouse, in vivo; mice fasted overnight, observed for 7 days; route not stated
Protocol: The test compound was administered to ddy male mice (body weight, 20 to 25 g) fasted overnight before administration.

[5] = system: pain reaction induced by acetic acid injection; test: Analgesic activity, acetic acid stretching method (Koster et al); type: in vivo, ddy male mice; conditions: oral; for Number of Stretching: n=8, control 36.5 ± 6.5
Protocol: According to the acetic acid stretching method described by Koster et al [Fed. Pro., 18, 412 (1959)], Compound A was administered orally to ddy male mice (body weight, 20 to 25 g) fasted overnight before test. One hour after administration of Compound A, a 0.6% aqueous acetic acid solution was administered intraperitoneally at a dose of 0.35 ml per mouse and the stretching of the mice was observed 10 minutes after the administration of the acetic acid solution for a period of 10 minutes, and the percent inhibition was calculated.

[6] = system: contraction induced by acetylchloline, ileum of guinea pig; test: Anti-cholinergic activity, acetylcholine-induced contraction of extracted ileum (Magnus tube); conditions: 31° C.
Protocol: as §1

[7] = system: indomethacin-induced ulcer; test: Anti-ulcer activity, indomethacin-induced ulcer; type: in vivo, Wister male rats; conditions: for Percent Inhibition (indomethacin ulcer) / Ulcerous Index: oral; for Ulcerous Index: control 15.4, indomethacin 20 mg/kg s.c.
Protocol: A suspension of indomechacin in 0.25% CMC was administered subcutaneously at a dose of 20 mg/kg to Wister male rats (body weight, 125 to 150 g) fasted for 24 hours. The test compound was administered orally 30 minutes before the administration of indomethacin. Seven hours after the administration of indomethacin, the rats were sacrificed by dislocation of neck, and the stomach was extracted. 7.5 ml of 1% formalin solution was injected into the stomach cavity, and the stomack was hardened. The linear-type ulcer generated in the mucous membrane of the stomach was then observed.

[8] = system: decrease in body temperature induced by administration of reserpine; test: Anti-reserpine (anti-depression) activity, rectal temperature; type: in vivo, ddy male mice; conditions: oral, 50 and 100 mg/kg; reserpine 2 mg/kg s.c. twice
Protocol: Reserpine was administered subcutaneously to ddy male mice (body weight, 25 to 30 g) at a dose of 2 mg/kg and, after fasting for 18 hours, reserpine was again administered subcutaneously at a dose of 2 mg/kg. Five hours after the second administration of reserpine, the mice which indicated a constant decrease in body temperature were selected and administered orally with the test compound (Compound C), followed by measuring the rectal temperature of the mice at one hour intervals.
In this experiment, Imipramine (10,11-dihydro-N,N-dimethyl-5H-dibenz[b,f]azepine-5-propanamine) and Amitriptyline [3-(10,11-dihydro-5H-dibenzo[a,d]-cyclohepten-5-ylidene)-N,N-dimethyl-1-propanamine] were used as typical examples of known compounds for comparison and the results obtained with these compounds are also shown in FIG. 1(a).

[9] = 100 mg/kg into the duodenum, *p < 0.05

Compound: CN1[C@@H]2CC[C@H]1C[C@@H](OC(=O)C(CO)c1ccccc1)C2 (stereo partly drawn) [Atropine, reference compound]
- pH Value (gastric juice) ([1]; 5 mg/kg into the duodenum): 2.22 ± 0.25
- Amount of Gastric Juice ([1]; 5 mg/kg into the duodenum): 0.90 ± 0.09 mL
- Amount of Output Secretion ([1]; 5 mg/kg into the duodenum): 57 ± 6.0 μ Eq.
- Percent Inhibition (stress ulcer) ([2]; 5 mg/kg): 93.0%
- Ulcerous Index ([2]; 5 mg/kg): 5.3 mm

Compound: CN(C)CCCn1cc(-c2ccccc2)c2ccccc2c1=O [Compound A, 2-(3-N,N-dimethylaminopropyl)-4-phenyl-1(2H)-isoquinolone tartrate]
- shift of histamine-induced contraction curve [3]: shift the hitamine-induced contraction curve determined in guinea pig ileum to the right direction on the figures in parallel
- anti-histamine activity [3]: possess a specific anti-histamine activity
- LD50 at 168 h [4]: 662 mg/kg
- Number of Stretching ([5]; 25 mg/kg): 33.8 ± 8.2
- Percent Inhibition (stretching) ([5]; 50 mg/kg): 53.7%
- Number of Stretching ([5]; 50 mg/kg, *p < 0.05): 16.9 ± 4.8
- Percent Inhibition (stretching) ([5]; 100 mg/kg): 72.6%
- Number of Stretching ([5]; 100 mg/kg, **p < 0.01): 10.0 ± 2.8
- inhibition of the pain reaction induced by acetic acid injection ([5]; 50 and 100 mg/kg): inhibited the pain reaction induced by acetic acid injection
- anti-cholinergic activity [6]: non-specific anti-cholinergic activity
- pH Value (gastric juice) [1, 9]: 3.06 ± 0.44
- Amount of Gastric Juice ([1]; 100 mg/kg into the duodenum): 0.53 ± 0.12 mL
- Amount of Output Secretion ([1]; 100 mg/kg into the duodenum): 22 ± 5.9 μ Eq.
- effect on volume of gastric juice, acid secretion and pH value [1]: reduce the volume of gastric juice and the acid secretion and increase the pH value
- inhibition of ulcer generation caused by water-dipping restriction stress ([2]; dose of 25, 50 and 100 mg): inhibits the ulcer generation caused by water-dipping restriction stress
- Percent Inhibition (stress ulcer) ([2]; 25 mg/kg): 23.5%
- Ulcerous Index ([2]; 25 mg/kg): 58.0 mm
- Percent Inhibition (stress ulcer) ([2]; 50 mg/kg): 36.4%
- Ulcerous Index ([2]; 50 mg/kg): 48.2 mm
- Percent Inhibition (stress ulcer) ([2]; 100 mg/kg): 66.0%
- Ulcerous Index ([2]; 100 mg/kg): 25.3 mm

Compound: CN(C)CCn1cc(-c2ccccc2)c2ccccc2c1=O [Compound B, 2-(2-N,N-dimethylaminoethyl)-4-phenyl-1(2H)-isoquinolone hydrochloride]
- shift of histamine-induced contraction curve [3]: shift the hitamine-induced contraction curve determined in guinea pig ileum to the right direction on the figures in parallel
- anti-histamine activity [3]: possess a specific anti-histamine activity
- inhibition of indomethacin-induced ulcer ([7]; 50 mg/kg): inhibit the indomethacin-induced ulcer
- Percent Inhibition (indomethacin ulcer) ([7]; 50 mg/kg): 61.0%
- Ulcerous Index ([7]; 50 mg/kg, n=8): 6.0 mm
- LD50 at 168 h [4]: 195 mg/kg
- anti-cholinergic activity [6]: non-specific anti-cholinergic activity

Compound: CN(C)CCCn1cc(C#N)c2ccccc2c1=O [Compound C, 4-cyano-2-(3-N,N-dimethylaminopropyl)-1(2H)-isoquinolone tartrate 1/2 hydrate]
- shift of histamine-induced contraction curve [3]: shift the hitamine-induced contraction curve determined in guinea pig ileum to the right direction on the figures in parallel
- anti-histamine activity [3]: possess a specific anti-histamine activity
- LD50 at 168 h [4]: 699 mg/kg
- rectal temperature decreased by pretreatment with reserpine [8]: increases at a dose of 50 and 100 mg/kg significantly the rectal temperature
- pH Value (gastric juice) [1, 9]: 1.88 ± 0.10
- Amount of Gastric Juice ([1]; 100 mg/kg into the duodenum): 1.85 ± 0.35 mL
- Amount of Output Secretion ([1]; 100 mg/kg into the duodenum): 72 ± 5.3 μ Eq.
- effect on volume of gastric juice, acid secretion and pH value [1]: reduce the volume of gastric juice and the acid secretion and increase the pH value

Compound: CC(Cn1cc(-c2ccccc2)c2ccccc2c1=O)N(C)C (stereo not drawn) [Compound D, 2-(2-N,N-dimethylaminopropyl)-4-phenyl-1(2H)-isoquinolone maleate]
- inhibition of indomethacin-induced ulcer ([7]; 50 mg/kg): inhibit the indomethacin-induced ulcer
- Percent Inhibition (indomethacin ulcer) ([7]; 50 mg/kg): 73.0%
- Ulcerous Index ([7]; 50 mg/kg, n=8): 4.1 mm
- LD50 at 168 h [4]: 505 mg/kg

Compound: CCN1CCCC1CNC(=O)c1cc(S(N)(=O)=O)ccc1OC (stereo not drawn) [Sulpiride, 5(aminosulfonyl)-N--(1ethyl-2-pyrrolidinyl)-methyl 2-methoxybenzamide, reference compound]
- Ulcerous Index ([2]; 100 mg/kg): 71.0 mm

Compound: basic aluminum sucrose sulfate [Sucralfate, reference compound]
- Percent Inhibition (indomethacin ulcer) ([7]; 300 mg/kg): 81.1%
- Ulcerous Index ([7]; 300 mg/kg): 2.9 mm
